Experimental data reported in patent US7713963B2, “Acylated indanyl amines and their use as pharmaceuticals” (sanofi-aventis Deutschland GmbH, priority 2001, dated 2010).
Like-named read-outs stand apart in the source and are kept apart here.

Test system: eNOS promoter
Assay: Activation of eNOS transcription (eNOS promoter-luciferase reporter gene assay)
Type: cell-based, human
Details: 18 h incubation; for maximal fold induction: read-out: TIR (max); for EC50: EC50 of transcription induction ratio, determined graphically, human endothelial cell line, read-out: EC-50
Procedure: Measurement of activation of eNOS transcription Activation of eNOS transcription was measured as described in detail in Li et al. “Activation of protein kinase C alpha and/or epsilon enhances transcription of the human endothelial nitric oxide synthase gene”, Mol. Pharmacol. 1998; 53: 630-637. Briefly, a 3.5 kB long fragment 5′ of the starting codon of the eNOS gene was cloned, sequenced and cloned in firefly luciferase expression plasmids to monitor activation of the eNOS promoter by reporter gene activity. A human endothelial cell line stable transfected and expressing this promoter-reporter construct was used for compound testing. Cells were incubated for 18 h with compounds. All compounds were dissolved in sterile DMSO. A final concentration of 0.5% DMSO in complete medium was allowed. Induction of reporter gene expression in these cells was measured using a standard luciferase assay system (Promega, Cat. No E150) according to the manufacturer's instructions. Luciferase induction in cells incubated with compounds were compared to those incubated with solvent alone. The ratio of both activities (transcription induction ratio, TIR) was plotted as a function of compound concentration. […] EC50 values of transcription induction ratios as a function of compound concentration were determined graphically.

[1] = Homo sapiens, 18 h, maximum transcription induction ratio (luciferase with compound / solvent alone)
[2] = Homo sapiens, Endothelial cell, 18 h

| Compound | EC50 [2] [nM] | EC50 [nM] | TIR (max) (maximum transcription induction ratio (luciferase with compound / solvent alone)) | maximal fold induction [1] |
| --- | --- | --- | --- | --- |
| CC(C)S(=O)(=O)c1csc(C(=O)NC2Cc3ccccc3C2)c1Cl [Compound 265, 3-CHLORO-4-(PROPANE-2-SULFONYL)-THIOPHENE-2-CARBOXYLIC ACID INDAN-2-YLAMIDE] | 183 | – | – | 2.7 |
| O=C(NC1Cc2ccccc2C1)c1sc2cccc(Cl)c2c1Cl [Compound 329, 3,4-DICHLORO-BENZO[B]THIOPHENE-2-CARBOXYLIC ACID INDAN-2-YLAMIDE] | 2200 | – | – | 1.5 |
| O=C(NC1Cc2ccccc2C1)c1ccc(Cl)cc1Cl [Compound 277, 2,4-DICHLORO-N-INDAN-2-YL-BENZAMIDE] | 4100 | – | – | 3 |
| COc1ccc(C(=O)NC2Cc3ccccc3C2)cc1 [Compound 291, N-INDAN-2-YL-4-METHOXY-BENZAMIDE] | 238 | – | – | 2.8 |
| COC(=O)c1cccc(C(=O)NC2Cc3ccccc3C2)c1 [Compound 243, N-INDAN-2-YL-ISOPHTHALAMIC ACID METHYL ESTER] | 110 | – | – | 2.8 |
| CCCCCc1ccc(C(=O)NC2Cc3ccccc3C2)cc1 [Compound 293, N-INDAN-2-YL-4-PENTYL-BENZAMIDE] | 14000 | – | – | 1.7 |
| O=C(NC1Cc2ccccc2C1)c1cccc(Cl)c1 [Compound 283, 3-CHLORO-N-INDAN-2-YL-BENZAMIDE] | 15000 | – | – | 2.5 |
| Cc1cc(C(=O)NC2Cc3ccccc3C2)c(C)n1Cc1ccncc1 [Compound 230, 2,5-DIMETHYL-1-PYRIDIN-4-YLMETHYL-1H-PYRROLE-3-CARBOXYLIC ACID INDAN-2-YLAMIDE] | 820 | – | – | 4 |
| Cc1nc(C(F)(F)F)ccc1C(=O)NC1Cc2ccccc2C1 [Compound 237, N-INDAN-2-YL-2-METHYL-6-TRIFLUOROMETHYL-NICOTINAMIDE] | 7700 | – | – | 2.5 |
| O=C(NC1Cc2ccccc2C1)c1ccc(-n2ccnc2)cc1 [Compound 328, 4-IMIDAZOL-1-YL-N-INDAN-2-YL-BENZAMIDE] | 24000 | – | – | 2.4 |
| Cc1ccc(C(=O)NC2Cc3ccccc3C2)cc1C [Compound 29, 3,4-DIMETHYL-N-INDAN-2-YL-BENZAMIDE] | 800 | – | – | 3.8 |
| Cc1ccc(C(=O)NC2Cc3ccccc3C2)c(O)c1 [Compound 22, 2-HYDROXY-N-INDAN-2-YL-4-METHYL-BENZAMIDE] | 7000 | – | – | 2.1 |
| O=C(NC1Cc2ccc(F)cc2C1)c1ccc(F)cc1 (stereo not drawn) [Compound 4, 4-FLUORO-N-(5-FLUORO-INDAN-2-YL)-BENZAMIDE] | 3000 | – | – | 2.95 |
| O=C(NC1Cc2ccccc2C1)c1ccccc1F [Compound 273, 2-FLUORO-N-INDAN-2-YL-BENZAMIDE] | 2600 | – | – | 2.8 |
| O=C(NC1Cc2ccccc2C1)c1ccc(F)c(Br)c1 [Compound 33, 3-BROMO-4-FLUORO-N-INDAN-2-YL-BENZAMIDE] | 4000 | – | – | 3.3 |
| O=C(NC1Cc2ccccc2C1)c1sc2cc(F)ccc2c1Cl [Compound 324, 3-CHLORO-6-FLUORO-BENZO[B]THIOPHENE-2-CARBOXYLIC ACID INDAN-2-YLAMIDE] | 2100 | – | – | 1.7 |

| Compound | EC50 [2] [nM] | EC50 [nM] | TIR (max) (maximum transcription induction ratio (luciferase with compound / solvent alone)) | maximal fold induction [1] |
| --- | --- | --- | --- | --- |
| O=C(N[C@@H]1Cc2ccccc2[C@H]1O)c1ccc(F)cc1 (relative stereo) [Compound 8, 4-FLUORO-N-(TRANS-1-HYDROXY-INDAN-2-YL)-BENZAMIDE] | 8000 | – | – | 2.2 |
| O=C(NC1Cc2ccccc2C1)c1cc(F)c(Cl)cc1F [Compound 263, 4-CHLORO-2,5-DIFLUORO-N-INDAN-2-YL-BENZAMIDE] | 13000 | – | – | 2.5 |
| CCCCOc1ccc(C(=O)NC2Cc3ccccc3C2)cc1 [Compound 30, 4-BUTOXY-N-INDAN-2-YL-BENZAMIDE] | 3000 | – | – | 2.94 |
| COc1c(Br)cccc1C(=O)NC1Cc2ccccc2C1 [Compound 253, 3-BROMO-N-INDAN-2-YL-2-METHOXY-BENZAMIDE] | 13000 | – | – | 2.2 |
| Cc1ccccc1C(=O)NC1Cc2ccccc2C1 [Compound 281, N-INDAN-2-YL-2-METHYL-BENZAMIDE] | 684 | – | – | 3 |
| Cc1ccc(F)c(C(=O)NC2Cc3ccccc3C2)c1 [Compound 266, 2-FLUORO-N-INDAN-2-YL-5-METHYL-BENZAMIDE] | 22000 | – | – | 2.5 |
| O=C(NC1Cc2ccccc2C1)c1ccccc1Cl [Compound 275, 2-CHLORO-N-INDAN-2-YL-BENZAMIDE] | 559 | – | – | 3 |
| CCOc1cccc(C(=O)NC2Cc3ccccc3C2)c1 [Compound 306, 3-ETHOXY-N-INDAN-2-YL-BENZAMIDE] | 263 | – | – | 2.7 |
| Cc1cccc(C(=O)NC2Cc3ccccc3C2)c1Cl [Compound 264, 2-CHLORO-N-INDAN-2-YL-3-METHYL-BENZAMIDE] | 580 | – | – | 2.9 |
| CCNc1ccc(C(=O)NC2Cc3ccccc3C2)cc1 [Compound 268, 4-ETHYLAMINO-N-INDAN-2-YL-BENZAMIDE] | 485 | – | – | 3 |
| CCOc1ccc(C(=O)NC2Cc3ccccc3C2)cc1 [Compound 26, 4-ETHOXY-N-INDAN-2-YL-BENZAMIDE] | 900 | – | – | 3.8 |
| O=C(NC1Cc2ccccc2C1)c1cccc(Cl)c1Cl [Compound 276, 2,3-DICHLORO-N-INDAN-2-YL-BENZAMIDE] | 157 | – | – | 3 |
| Nc1nccnc1C(=O)NC1Cc2ccccc2C1 [Compound 185, 3-AMINO-PYRAZINE-2-CARBOXYLIC ACID INDAN-2-YLAMIDE] | 27000 | – | – | 2.4 |
| O=C(NC1Cc2ccccc2C1)c1cccc(C(=O)c2ccccc2)c1 [Compound 287, 3-BENZOYL-N-INDAN-2-YL-BENZAMIDE] | 13000 | – | – | 2.9 |
| CCOc1ccc(C(=O)NC2Cc3ccccc3C2)c(OC(C)=O)c1 [Compound 6, ACETIC ACID 5-ETHOXY-2-(INDAN-2-YL-CARBAMOYL)-PHENYL ESTER] | 1200 | – | – | 2.55 |

Further lines, with some results ahead:

| EC50 [2] [nM] | EC50 [nM] | TIR (max) (maximum transcription induction ratio (luciferase with compound / solvent alone)) | Compound | maximal fold induction [1] |
| --- | --- | --- | --- | --- |
| 8000 | – | – | CCCC(=O)Nc1cccc(C(=O)NC2Cc3ccccc3C2)c1 [Compound 375, 3-BUTYRYLAMINO-N-INDAN-2-YL-BENZAMIDE] | 2.3 |
| 37000 | – | – | CCc1sccc1C(=O)NC1Cc2ccccc2C1 [Compound 366, 2-ETHYL-THIOPHENE-3-CARBOXYLIC ACID INDAN-2-YLAMIDE] | 2.5 |
| 21000 | – | – | Cc1c(C(=O)NC2Cc3ccccc3C2)cccc1C(F)(F)F [Compound 361, N-INDAN-2-YL-2-METHYL-3-TRIFLUOROMETHYL-BENZAMIDE] | 2.5 |
| 5300 | – | – | O=C(NC1Cc2ccccc2C1)c1cccc(NC(=O)C2CC2)c1 [Compound 376, 3-(CYCLOPROPANECARBONYL-AMINO)-N-INDAN-2-YL-BENZAMIDE] | 2.4 |
| – | 1000 | 2.5 | O=C(NC1Cc2cccc(C=CC(=O)N3CCOCC3)c2C1)c1ccc(F)cc1 (stereo not drawn) [Compound 412, 4-FLUORO-N-[4-(3-MORPHOLIN-4-YL-3-OXO-PROPENYL)-NDAN-2-YL]-BENZAMIDE] | – |
| 2300 | – | – | CC(C)(C)C(=O)Nc1cccc(C(=O)NC2Cc3ccccc3C2)c1 [Compound 380, 3-(2,2-DIMETHYL-PROPIONYLAMINO)-N-INDAN-2-YL-BENZAMIDE] | 2.6 |
| 287 | – | – | Cc1csc(C(=O)NC2Cc3ccccc3C2)c1Cl [Compound 342, 3-CHLORO-4-METHYL-THIOPHENE-2-CARBOXYLIC ACID INDAN-2-YLAMIDE] | 3 |
| 10000 | – | – | O=C(NC1Cc2ccccc2C1)c1c(F)ccc(F)c1Cl [Compound 360, 2-CHLORO-3,6-DIFLUORO-N-INDAN-2-YL-BENZAMIDE] | 2.6 |
| 17000 | – | – | Cc1cc(C(=O)NC2Cc3ccccc3C2)c(C)s1 [Compound 368, 2,5-DIMETHYL-THIOPHENE-3-CARBOXYLIC ACID INDAN-2-YLAMIDE] | 2.5 |
| 2000 | – | – | CN(C)C(=O)C=Cc1cccc2c1CC(NC(=O)c1ccc(F)cc1)C2 (stereo not drawn) [Compound 411, N-[4-(2-DIMETHYLCARBAMOYL-VINYL)-INDAN-2-YL]-4-FLUORO-BENZAMIDE] | 2.5 |
| 2100 | – | – | Cc1cc(Br)c(C(=O)NC2Cc3ccccc3C2)s1 [Compound 364, 3-BROMO-5-METHYL-THIOPHENE-2-CARBOXYLIC ACID INDAN-2-YLAMIDE] | 2.9 |
| 30000 | – | – | O=C(NC1Cc2ccc(OS(=O)(=O)c3ccccc3)cc2C1)c1ccc(F)cc1 (stereo not drawn) [Compound 405, BENZENESULFONIC ACID 2-(4-FLUOROBENZOYLAMINO)-INDAN-5-YL ESTER] | 2.8 |
| 11000 | – | – | O=C(NC1Cc2cccc(I)c2C1)c1ccc(F)cc1 (stereo not drawn) [Compound 408, 4-FLUORO-N-(4-IODO-INDAN-2-YL)-BENZAMIDE] | 2.5 |
| 600 | – | – | O=C(NC1Cc2cccc(Br)c2C1)c1ccc(F)cc1 (single isomer, unassigned) [Compound 396A, N-(4-BROMO-INDAN-2-YL)-4-FLUORO-BENZAMIDE] | 3.55 |
